{"source": "paper PMC5218480", "about": "(PLoS ONE, 2017)", "test_system": "MV-4-11 cells", "experiment": "Gene expression microarray analysis (Affymetrix PrimeView) and GSEA", "format": "cell-based, human", "set-up": "RFU PODN (11730768_x_at) / Fold change /veh PODN (11730768_x_at) / RFU LINC00158 (11744669_a_at) / Fold change /veh LINC00158 (11744669_a_at) / RFU DUSP10 (11751237_a_at) / Fold change /veh DUSP10 (11751237_a_at) / RFU ID3 (11757404_x_at) / Fold change /veh ID3 (11757404_x_at) / RFU PLEKHG5 (11737974_s_at) / Fold change /veh PLEKHG5 (11737974_s_at) / RFU LRRC4B (11730491_at) / Fold change /veh LRRC4B (11730491_at) / RFU GIMAP4 (11747438_a_at) / Fold change /veh GIMAP4 (11747438_a_at) / RFU KRT8 (11758183_x_at) / Fold change /veh KRT8 (11758183_x_at) / RFU CNN1 (11734310_a_at) / Fold change /veh CNN1 (11734310_a_at) / RFU VPS37D (11726825_at) / Fold change /veh VPS37D (11726825_at) / RFU C10orf10 (11716522_x_at) / Fold change /veh C10orf10 (11716522_x_at) / RFU KIR2DL2 /// KIR2DL4 /// KIR2DL5A /// KIR2DL5B /// KIR2DS1 /// KIR2DS2 /// KIR2DS3 /// KIR2DS4 /// KIR3DL3 /// KIR3DL3 /// KIR3DS1 (11738374_at) / Fold change /veh KIR2DL2 /// KIR2DL4 /// KIR2DL5A /// KIR2DL5B /// KIR2DS1 /// KIR2DS2 /// KIR2DS3 /// KIR2DS4 /// KIR3DL3 /// KIR3DL3 /// KIR3DS1 (11738374_at) / RFU C1QL1 (11718748_at) / Fold change /veh C1QL1 (11718748_at) / RFU TMPRSS4 (11747572_a_at) / Fold change /veh TMPRSS4 (11747572_a_at) / RFU HAMP (11756126_x_at) / Fold change /veh HAMP (11756126_x_at) / RFU RNFT2 (11725882_a_at) / Fold change /veh RNFT2 (11725882_a_at) / RFU NR4A2 (11747474_a_at) / Fold change /veh NR4A2 (11747474_a_at) / RFU ABCC12 (11746883_a_at) / Fold change /veh ABCC12 (11746883_a_at) / RFU TMEM136 (11760407_x_at) / Fold change /veh TMEM136 (11760407_x_at) / RFU CLDN22 /// WWC2 (11732394_at) / Fold change /veh CLDN22 /// WWC2 (11732394_at) / RFU HLA-DPB1 (11760878_x_at) / Fold change /veh HLA-DPB1 (11760878_x_at) / RFU SPINT1 (11716480_a_at) / Fold change /veh SPINT1 (11716480_a_at) / RFU GAP43 (11754022_s_at) / Fold change /veh GAP43 (11754022_s_at) / RFU A4GNT (11735810_at) / Fold change /veh A4GNT (11735810_at) / RFU PRB3 (11715151_x_at) / Fold change /veh PRB3 (11715151_x_at) / RFU TUBB4B (11761932_at) / Fold change /veh TUBB4B (11761932_at) / RFU CAPN14 (11732068_a_at) / Fold change /veh CAPN14 (11732068_a_at) / RFU TMCC2 (11721928_a_at) / Fold change /veh TMCC2 (11721928_a_at) / RFU IRGQ (11745062_a_at) / Fold change /veh IRGQ (11745062_a_at) / RFU FAM174B (11720279_a_at) / Fold change /veh FAM174B (11720279_a_at) / RFU TMPRSS4 (11748680_a_at) / Fold change /veh TMPRSS4 (11748680_a_at) / RFU FAM212B (11763350_a_at) / Fold change /veh FAM212B (11763350_a_at) / RFU PLEKHG5 (11743358_a_at) / Fold change /veh PLEKHG5 (11743358_a_at) / RFU ZSCAN30 (11745921_a_at) / Fold change /veh ZSCAN30 (11745921_a_at) / RFU CMKLR1 (11741424_a_at) / Fold change /veh CMKLR1 (11741424_a_at) / RFU LOC101060620 /// MAPK8IP1 (11723275_at) / Fold change /veh LOC101060620 /// MAPK8IP1 (11723275_at) / RFU SPTSSB (11747773_x_at) / Fold change /veh SPTSSB (11747773_x_at) / RFU PRSS12 (11739890_at) / Fold change /veh PRSS12 (11739890_at) / RFU BIN1 (11741810_x_at) / Fold change /veh BIN1 (11741810_x_at) / RFU WNT11 (11732464_a_at) / Fold change /veh WNT11 (11732464_a_at) / RFU C10orf10 (11716521_a_at) / Fold change /veh C10orf10 (11716521_a_at) / RFU C5orf56 (11738089_at) / Fold change /veh C5orf56 (11738089_at) / RFU CYB561 (11721691_x_at) / Fold change /veh CYB561 (11721691_x_at) / RFU ANKRD19P (11752326_a_at) / Fold change /veh ANKRD19P (11752326_a_at) / RFU OR2T12 /// OR2T33 /// OR2T8 (11738714_s_at) / Fold change /veh OR2T12 /// OR2T33 /// OR2T8 (11738714_s_at) / RFU VCAN (11748164_a_at) / Fold change /veh VCAN (11748164_a_at) / RFU JSRP1 (11732532_at) / Fold change /veh JSRP1 (11732532_at) / RFU KRTAP10-11 (11738290_x_at) / Fold change /veh KRTAP10-11 (11738290_x_at) / RFU MYO3A (11730013_a_at) / Fold change /veh MYO3A (11730013_a_at) / RFU EBF3 (11725865_a_at) / Fold change /veh EBF3 (11725865_a_at) / RFU CAMK2N1 (11719241_x_at) / Fold change /veh CAMK2N1 (11719241_x_at) / RFU C5orf56 (11738088_a_at) / Fold change /veh C5orf56 (11738088_a_at) / RFU OLFML3 (11715873_a_at) / Fold change /veh OLFML3 (11715873_a_at) / RFU LOC100653217 /// NTM (11731650_a_at) / Fold change /veh LOC100653217 /// NTM (11731650_a_at) / RFU MAPK11 (11762145_a_at) / Fold change /veh MAPK11 (11762145_a_at) / RFU FIZ1 (11724087_x_at) / Fold change /veh FIZ1 (11724087_x_at) / RFU OASL (11726364_x_at) / Fold change /veh OASL (11726364_x_at) / RFU SOX15 (11748057_x_at) / Fold change /veh SOX15 (11748057_x_at) / RFU CD79A (11719716_a_at) / Fold change /veh CD79A (11719716_a_at) / RFU HIST1H1D (11736915_at) / Fold change /veh HIST1H1D (11736915_at) / RFU CASKIN2 (11723855_a_at) / Fold change /veh CASKIN2 (11723855_a_at) / RFU LOC730098 (11760151_x_at) / Fold change /veh LOC730098 (11760151_x_at) / RFU OR4N2 (11742367_at) / Fold change /veh OR4N2 (11742367_at) / RFU PRRT2 (11749266_a_at) / Fold change /veh PRRT2 (11749266_a_at) / RFU SNX32 (11753110_a_at) / Fold change /veh SNX32 (11753110_a_at) / RFU CDHR5 (11726645_a_at) / Fold change /veh CDHR5 (11726645_a_at) / RFU RCAN1 (11760418_a_at) / Fold change /veh RCAN1 (11760418_a_at) / RFU FAM167A (11723789_a_at) / Fold change /veh FAM167A (11723789_a_at) / RFU FAM26E (11764081_at) / Fold change /veh FAM26E (11764081_at) / RFU ISYNA1 (11749810_s_at) / Fold change /veh ISYNA1 (11749810_s_at) / RFU ACY1 (11761880_at) / Fold change /veh ACY1 (11761880_at) / RFU 11764098_at / Fold change /veh 11764098_at / RFU SAMD14 (11745864_x_at) / Fold change /veh SAMD14 (11745864_x_at) / RFU NPB (11741838_a_at) / Fold change /veh NPB (11741838_a_at) / RFU TMPRSS6 (11731388_a_at) / Fold change /veh TMPRSS6 (11731388_a_at) / RFU KRTAP10-2 (11738614_at) / Fold change /veh KRTAP10-2 (11738614_at) / RFU ARHGAP8 /// PRR5-ARHGAP8 (11727945_x_at) / Fold change /veh ARHGAP8 /// PRR5-ARHGAP8 (11727945_x_at) / RFU KRTAP5-7 /// NADSYN1 (11734609_at) / Fold change /veh KRTAP5-7 /// NADSYN1 (11734609_at) / RFU RASL12 (11751679_a_at) / Fold change /veh RASL12 (11751679_a_at) / RFU CDKN2B (11736163_a_at) / Fold change /veh CDKN2B (11736163_a_at) / RFU PRF1 (11729649_at) / Fold change /veh PRF1 (11729649_at) / RFU, ZNF638 /// ZNF638-IT1 / Fold change vs veh, ZNF638 /// ZNF638-IT1 / RFU, PANK3 / Fold change vs veh, PANK3 / RFU, SH3YL1 / Fold change vs veh, SH3YL1 / RFU, ZEB2 / Fold change vs veh, ZEB2 / RFU, NRIP1 / Fold change vs veh, NRIP1 / RFU, PTTG1IP / Fold change vs veh, PTTG1IP / RFU, CAPN2 / Fold change vs veh, CAPN2 / RFU, MED14 / Fold change vs veh, MED14 / RFU, SNORA58 / Fold change vs veh, SNORA58 / RFU, C1orf63 / Fold change vs veh, C1orf63 / RFU, LRRFIP1 / Fold change vs veh, LRRFIP1 / RFU, NDUFAF7 / Fold change vs veh, NDUFAF7 / RFU, SLC12A2 / Fold change vs veh, SLC12A2 / RFU, IBTK / Fold change vs veh, IBTK / RFU, ESF1 / Fold change vs veh, ESF1 / Fold change vs veh, TMEM50B / RFU, TAOK1 / Fold change vs veh, TAOK1 / RFU, ACBD3 / Fold change vs veh, ACBD3 / RFU, TMA16 / Fold change vs veh, TMA16 / RFU, RWDD3 / Fold change vs veh, RWDD3 / RFU, BCAT1 / Fold change vs veh, BCAT1 / RFU, EDEM3 / Fold change vs veh, EDEM3 / RFU, TMEM33 / Fold change vs veh, TMEM33 / RFU, WDR75 / Fold change vs veh, WDR75 / RFU, AHCTF1 / Fold change vs veh, AHCTF1 / RFU, TFRC / Fold change vs veh, TFRC / RFU, ZDHHC17 / Fold change vs veh, ZDHHC17 / RFU, NOM1 / Fold change vs veh, NOM1 / RFU, ARL8B / Fold change vs veh, ARL8B / RFU, ZBTB11 / Fold change vs veh, ZBTB11 / RFU, TAMM41 / Fold change vs veh, TAMM41 / RFU, KIAA1704 /// LOC100996395 / Fold change vs veh, KIAA1704 /// LOC100996395 / RFU, ING1 / Fold change vs veh, ING1 / RFU, TRMT61B / Fold change vs veh, TRMT61B / RFU, FUBP3 / Fold change vs veh, FUBP3 / RFU, TP53 / Fold change vs veh, TP53 / RFU, TNKS2 / Fold change vs veh, TNKS2 / RFU, ZFP14 / Fold change vs veh, ZFP14 / RFU, ACTR2 / Fold change vs veh, ACTR2 / RFU, PPP3R1 / Fold change vs veh, PPP3R1 / RFU, PIK3R1 / Fold change vs veh, PIK3R1 / RFU, HNRNPA1 / Fold change vs veh, HNRNPA1 / RFU, RNF170 / Fold change vs veh, RNF170 / RFU, ZNF28 / Fold change vs veh, ZNF28 / RFU, RNGTT / Fold change vs veh, RNGTT / RFU, OGT / Fold change vs veh, OGT / RFU, BRD1 / Fold change vs veh, BRD1 / RFU, MARS / Fold change vs veh, MARS / RFU, ZNF655 / Fold change vs veh, ZNF655 / RFU, FAHD1 / Fold change vs veh, FAHD1 / RFU, BDP1 / Fold change vs veh, BDP1 / RFU, LRRCC1 / Fold change vs veh, LRRCC1 / RFU, ARID1A / Fold change vs veh, ARID1A / RFU, ZNF146 / Fold change vs veh, ZNF146 / RFU, ZNF330 / Fold change vs veh, ZNF330 / RFU, GPN3 / Fold change vs veh, GPN3 / RFU, C9orf123 / Fold change vs veh, C9orf123 / RFU, N4BP2L2 / Fold change vs veh, N4BP2L2 / RFU, ARFIP1 / Fold change vs veh, ARFIP1 / RFU, FAM179B / Fold change vs veh, FAM179B / RFU, BCL10 / Fold change vs veh, BCL10 / RFU, UHRF1BP1L / Fold change vs veh, UHRF1BP1L / RFU, BET1 / Fold change vs veh, BET1 / RFU, CNOT2 / Fold change vs veh, CNOT2 / RFU, ZNF268 / Fold change vs veh, ZNF268 / Fold change vs veh, ZNF507 / RFU, DGCR2 / Fold change vs veh, DGCR2 / RFU, WDSUB1 / Fold change vs veh, WDSUB1 / Fold change vs veh, HSP90B1 /// MIR3652 / RFU, ADSS / Fold change vs veh, ADSS / RFU, GK / Fold change vs veh, GK / RFU, ZNF148 / Fold change vs veh, ZNF148 / RFU, TAF9 / Fold change vs veh, TAF9 / RFU, SLC1A5 / Fold change vs veh, SLC1A5 / RFU, SLMO2 / Fold change vs veh, SLMO2 / RFU, ABCC4 / Fold change vs veh, ABCC4 / RFU, LOC101060439 /// RAP1B / Fold change vs veh, LOC101060439 /// RAP1B / RFU, RFX7 / Fold change vs veh, RFX7 / RFU, GTPBP10 / Fold change vs veh, GTPBP10 / RFU, CNEP1R1 / Fold change vs veh, CNEP1R1 / RFU, BIVM-ERCC5 /// ERCC5 / Fold change vs veh, BIVM-ERCC5 /// ERCC5 / RFU, ILF3 / Fold change vs veh, ILF3 / RFU 11762660_at / Fold change /veh 11762660_at / RFU VCAN (11757783_s_at) / Fold change /veh VCAN (11757783_s_at) / RFU DDX43 (11728927_at) / Fold change /veh DDX43 (11728927_at) / RFU KRT8 (11758188_x_at) / Fold change /veh KRT8 (11758188_x_at) / RFU NKD1 (11759106_at) / Fold change /veh NKD1 (11759106_at) / RFU SRD5A1 (11742802_a_at) / Fold change /veh SRD5A1 (11742802_a_at) / RFU TPSAB1 /// TPSB2 (11721975_s_at) / Fold change /veh TPSAB1 /// TPSB2 (11721975_s_at) / RFU GSTM3 (11746129_a_at) / Fold change /veh GSTM3 (11746129_a_at) / RFU IL23R (11737362_x_at) / Fold change /veh IL23R (11737362_x_at) / RFU TMEM51 (11727254_a_at) / Fold change /veh TMEM51 (11727254_a_at) / RFU PIWIL2 (11732686_x_at) / Fold change /veh PIWIL2 (11732686_x_at) / RFU ORM1 (11744905_x_at) / Fold change /veh ORM1 (11744905_x_at) / RFU CCDC152 (11743942_at) / Fold change /veh CCDC152 (11743942_at) / RFU ECM1 (11717891_a_at) / Fold change /veh ECM1 (11717891_a_at) / RFU IL23R (11748794_a_at) / Fold change /veh IL23R (11748794_a_at) / RFU TNFAIP8L3 (11732012_x_at) / Fold change /veh TNFAIP8L3 (11732012_x_at) / RFU MBOAT4 (11741988_at) / Fold change /veh MBOAT4 (11741988_at) / RFU 11764193_at / Fold change /veh 11764193_at / RFU TMEM53 (11763286_at) / Fold change /veh TMEM53 (11763286_at) / RFU MAGEB2 (11727129_at) / Fold change /veh MAGEB2 (11727129_at) / RFU TMEM200A (11744735_a_at) / Fold change /veh TMEM200A (11744735_a_at) / RFU CCDC152 (11751479_a_at) / Fold change /veh CCDC152 (11751479_a_at) / RFU FAM211A (11726209_a_at) / Fold change /veh FAM211A (11726209_a_at) / RFU RGS16 (11746705_a_at) / Fold change /veh RGS16 (11746705_a_at) / RFU VCAN (11755009_s_at) / Fold change /veh VCAN (11755009_s_at) / RFU RHOB (11743442_s_at) / Fold change /veh RHOB (11743442_s_at) / RFU RGS16 (11720943_a_at) / Fold change /veh RGS16 (11720943_a_at) / RFU RGS16 (11720944_at) / Fold change /veh RGS16 (11720944_at) / RFU, VPS4B / Fold change vs veh, VPS4B / RFU, CREB1 / Fold change vs veh, CREB1 / RFU, DNAJC13 / Fold change vs veh, DNAJC13 / RFU, GNAQ / Fold change vs veh, GNAQ / RFU, CDK5R1 / Fold change vs veh, CDK5R1 / RFU, ZRANB3 / Fold change vs veh, ZRANB3 / RFU, CUL4A / Fold change vs veh, CUL4A / RFU, CCNY / Fold change vs veh, CCNY / RFU, UFL1 / Fold change vs veh, UFL1 / RFU, COG3 / Fold change vs veh, COG3 / RFU, DIAPH2 / Fold change vs veh, DIAPH2 / RFU, SKA2 / Fold change vs veh, SKA2 / RFU, AFF3 / Fold change vs veh, AFF3 / RFU, LMF1 / Fold change vs veh, LMF1 / RFU, IPO11 / Fold change vs veh, IPO11 / RFU, DFFB / Fold change vs veh, DFFB / RFU, FOXP1 / Fold change vs veh, FOXP1 / RFU, CARD8 / Fold change vs veh, CARD8 / RFU, STRN3 / Fold change vs veh, STRN3 / RFU, ADK / Fold change vs veh, ADK / RFU, RASSF2 / Fold change vs veh, RASSF2 / RFU, WIPF1 / Fold change vs veh, WIPF1 / RFU, LARP1B / Fold change vs veh, LARP1B / RFU, RASA1 / Fold change vs veh, RASA1 / RFU, RB1 / Fold change vs veh, RB1 / RFU, PPFIA1 / Fold change vs veh, PPFIA1 / RFU, MAT2A / Fold change vs veh, MAT2A / RFU, CCT5 / Fold change vs veh, CCT5 / RFU, WDR92 / Fold change vs veh, WDR92 / RFU, CUX1 / Fold change vs veh, CUX1 / RFU, TTC7A / Fold change vs veh, TTC7A / RFU, TMEM135 / Fold change vs veh, TMEM135 / RFU, DEPTOR / Fold change vs veh, DEPTOR / RFU, CPM / Fold change vs veh, CPM / RFU, DNAJB6 / Fold change vs veh, DNAJB6 / RFU, CACNA2D3 / Fold change vs veh, CACNA2D3 / RFU, DTX4 / Fold change vs veh, DTX4 / RFU, TFCP2 / Fold change vs veh, TFCP2 / RFU, GMCL1 /// GMCL1P1 / Fold change vs veh, GMCL1 /// GMCL1P1 / RFU, AEBP2 / Fold change vs veh, AEBP2 / RFU, SNHG1 /// SNORD22 /// SNORD25 /// SNORD26 /// SNORD27 /// SNORD28 /// SNORD29 /// SNORD31 / Fold change vs veh, SNHG1 /// SNORD22 /// SNORD25 /// SNORD26 /// SNORD27 /// SNORD28 /// SNORD29 /// SNORD31 / Fold change (Aza/veh), C12orf56 (ProbeSet 11735607_a_at) / Fold change (ACY-1035/veh), C12orf56 (ProbeSet 11735607_a_at) / Fold change (Aza/veh), FGFR1OP (ProbeSet 11751329_s_at) / Fold change (ACY-1035/veh), FGFR1OP (ProbeSet 11751329_s_at) / Fold change (Aza/veh), VPS36 (ProbeSet 11739960_a_at) / Fold change (ACY-1035/veh), VPS36 (ProbeSet 11739960_a_at) / RFU SYPL1 (11715823_x_at) / Fold change /veh SYPL1 (11715823_x_at) / RFU IGFBP7 (11715501_s_at) / Fold change /veh IGFBP7 (11715501_s_at) / RFU REEP3 (11722064_at) / Fold change /veh REEP3 (11722064_at) / RFU IGLL1 (11728026_x_at) / Fold change /veh IGLL1 (11728026_x_at): dose or concentration left out as unconfirmed", "settings": "MV-4-11 cells, 48 hours"}
{"compound": "Nc1ccc(-c2cccs2)cc1NC(=O)c1ccc2c(c1)cc(C1CC1)n2CCN1CCOCC1", "note": "[ACY-1035]", "values": [{"measurement": "Fold change /veh GAP43 (11754022_s_at)", "value": 0.88}]}
